Assay [1] deals with KPC CCs liver colonization. Put plainly: Intrasplenic model of liver colonization, late administration of treatment (established metastases). Type of assay: in vivo, mouse. To be noted: for Quantification of metastases/mm2 (late administration): Figure 5F, intrasplenic liver colonization, individual animals; for metastatic burden in liver: treatment from day 4, established metastases. On the procedure: Fig. 5 PXS-5505 administered in intrasplenic models of liver colonization. a, Schematic of the intrasplenic model of liver colonization with early administration of treatment. CCs were implanted into the spleen of BALB/c-Fox1nuAusb mice under anesthesia on day 0. Treatment with 0.9% saline (vehicle); twice-weekly Gem (100 mg kg^−1 i.p.) (Gem); daily PXS-5505 at 20 mg kg^−1 i.p. (PXS-5505) or daily PXS-5505 at 20 mg kg^−1 i.p. + twice-weekly Gem at 100 mg kg^−1 i.p. (PXS-5505 + Gem) was administered from day 1. At the end point (day 10) livers were collected and H&E-stained for scoring. Representative images of H&E-stained liver (taken from one biologically independent animal). Scale bar, 100 μm. b, Representative images of H&E-stained livers from each treatment group (n = 1 FOV taken from one biologically independent animal per group). Scale bars, 100 μm. c, Quantification of metastases per mm^2 (n = 9 biologically independent animals per group). Data are mean ± s.d. […] Data are mean ± s.d. Two-tailed P values were determined by an unpaired, nonparametric t-test with a Mann–Whitney U-test correction (comparison between two groups). e, Schematic of intrasplenic model of liver colonization with late administration of treatment. CCs were implanted into the spleen of BALB/c-Fox1nuAusb mice under anesthesia on day 0. Treatment with 0.9% saline (vehicle); twice-weekly Gem (100 mg kg^−1 i.p.) (Gem); daily PXS-5505 at 20 mg kg^−1 i.p. (PXS-5505); or daily PXS-5505 at 20 mg kg^−1 i.p. + three doses of Gem (100 mg kg^−1 i.p. (PXS-5505 + Gem) was administered from day 4. Representative images of H&E-stained liver (taken from one biologically independent animal). Scale bar, 100 μm. f, Quantification of metastases at endpoint (n = 10 biologically independent animals per treatment group, n = 5 biologically independent animals at day 4 for confirmation of overt metastases). Data are mean ± s.d. P values were determined by an unpaired, nonparametric t-test with a Mann–Whitney U-test correction (comparison between two groups). g, Representative images of H&E-stained livers from each treatment group. Scale bars, 100 μm. Source data
For the intrasplenic models, animals were randomized before receiving treatment. GLP-grade PXS-5505 (20 mg kg^−1) was administered daily i.p. (starting day 0 for the early stage and day 4 for the late stage) until the end point and gemcitabine (100 mg kg^−1) was administered on days 3, 6 and 9 for the early stage and days 5, 7 and 10 for the late stage. […]
The 4-µm formalin-fixed paraffin-embedded (FFPE) sections were cut and stained for H&E following standard histopathology methodologies or stained for CK19 using the Bond RX H2(30) protocol detailed above. […] The total number of liver metastases were quantified and determined using QuPath[57].

The subject of another assay is KPC PDAC tumors. Briefly: Tumor weight at end point, KPC survival study. It counts as in vivo, mouse. To be noted: Extended Data 5B; KPC tumours; individual animals. From the text: Treatment of KPC mice with gemcitabine led to a slowing of primary tumor progression, increasing survival from a median survival of 85 days in untreated mice to 125 days in gemcitabine-treated mice (P = 0.0005) (Fig. 4b,c, blue versus red). PXS-5505 as a monotherapy led to no changes in median survival compared to vehicle (85 versus 81 days) (Fig. 4c, blue versus green).
Extended Data Fig. 5 PXS-5505 in combination with gemcitabine in vivo. a. […] Signal is defined as the enzyme activity in the aorta, while noise is measured in the presence of a high concentration (300 µM) BAPN to abolish any lysyl oxidase family activity. […] Data presented as mean values +/− SD b. […] Data presented as mean values +/− SD. c. FITC-dextran (molecular weight: 10 kDa) signal quantification from KPC tumor end point from each treatment group (vehicle n = 3 biologically independent animals, PXS-5505 n = 5 biologically independent animals, Gem n = 5 biologically independent animals, PXS-5505 + Gem n = 5 biologically independent animals). 4 ROIs taken per mouse. P-values determined by Welchs t-test. […] Quantification of red birefringent (mature) collagen fibers from human PDXs at end point after 3 cycles of treatment, treated as indicated. […] P values determined by Welchs t-test. g. […] Quantification of green birefringent (nascent) collagen fibers from human PDXs at end point, treated as indicated. […]

Where “and” joins values, the source holds several entries; their conditions need not be identical. Identical values can stand only once.

For the compound `Nc1ccn([C@@H]2O[C@H](CO)[C@@H](O)C2(F)F)c(=O)n1` [Gem, gemcitabine], in assay [1], the “Quantification of metastases/mm2 (late administration)” value was 0.001632 metastases/mm2 and 0.001329 metastases/mm2 and 0.001736 metastases/mm2 and 0.001305 metastases/mm2 and 0.001793 metastases/mm2 and 0.001126 metastases/mm2 and 0.001529 metastases/mm2 and 0.001107 metastases/mm2 and 0.001352 metastases/mm2 and 0.001209 metastases/mm2; the “metastatic burden in liver” value is reported as “did not significantly alter metastatic burden”. Also, the “Tumour weight at endpoint” value in the assay on KPC PDAC tumors was 0.28 grams and 0.51 grams and 0.6 grams and 0.69 grams and 0.41 grams and 0.462 grams and 0.3 grams and 0.26 grams and 0.37 grams and 1.42 grams and 0.75 grams and 0.63 grams and 1.2 grams and 0.7 grams and 0.4 grams.

For `Cl.Cl.NC/C=C(\F)CS(=O)(=O)c1cccc2cccnc12.O` [PXS-5505, (Z)-3-fluoro-4-(quinolin-8-ylsulfonyl)but-2-en-1-amine dihydrochloride monohydrate], in assay [1], the “Quantification of metastases/mm2 (late administration)” value was 0.001672 metastases/mm2 and 0.001212 metastases/mm2 and 0.001664 metastases/mm2 and 0.001776 metastases/mm2 and 0.002261 metastases/mm2 and 0.001845 metastases/mm2 and 0.0007878 metastases/mm2 and 0.001204 metastases/mm2 and 0.001477 metastases/mm2 and 0.001663 metastases/mm2; the “metastatic burden in liver” value was “did not significantly alter metastatic burden”. The “Tumour weight at endpoint” value with KPC PDAC tumors is 0.55 grams and 0.54 grams and 0.19 grams and 0.83 grams and 0.33 grams and 1.18 grams and 0.43 grams and 0.96 grams and 1.94 grams and 0.78 grams and 1.16 grams and 1.34 grams and 0.68 grams and 0.3 grams and 1.3 grams and 0.5 grams and 0.8 grams.

(Values after PMC10518255, “A first-in-class pan-lysyl oxidase inhibitor impairs stromal remodeling and enhances gemcitabine response and survival in pancreatic cancer” (Nature Cancer, 2023).)
